In US20240182445A1 (ONO PHARMACEUTICAL CO., LTD., priority 2019, published 2024):

Biological target: T1, human TREK-1 (Homo sapiens, UniProt O95069)
T1 construct: expressed in transfected cells
T1 sequence (O95069 1-426): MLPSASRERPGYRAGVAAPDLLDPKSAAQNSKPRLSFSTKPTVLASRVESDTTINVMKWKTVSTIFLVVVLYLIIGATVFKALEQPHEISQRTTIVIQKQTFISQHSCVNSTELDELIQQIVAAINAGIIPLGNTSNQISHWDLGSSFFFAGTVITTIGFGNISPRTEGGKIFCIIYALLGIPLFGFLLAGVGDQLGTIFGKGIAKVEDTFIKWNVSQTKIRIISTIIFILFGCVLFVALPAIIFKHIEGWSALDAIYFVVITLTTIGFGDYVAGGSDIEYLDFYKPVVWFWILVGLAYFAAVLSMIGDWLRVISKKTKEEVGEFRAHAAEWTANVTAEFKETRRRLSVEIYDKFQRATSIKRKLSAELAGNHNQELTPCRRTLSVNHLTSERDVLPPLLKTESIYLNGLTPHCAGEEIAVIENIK
Test: TREK-1 Thallium (Tl+) flux assay, Method 1
Format: cell-based
Settings: TREK-1 Thallium (Tl+) flux assay
Protocol: The term “thallium flux assay” herein refers to a fluorescence-based assay used to monitor the activity of TREK channels. Thallium is a congener of potassium that readily fluxes through the pore of TREK channels. Thallium flux is measured using a commercially available, thallium-sensitive fluorescent dye called Thallos. The detail method is described below.
CHO-K1 cells stably expressing human TREK-1 were plated in 384-well plates, cultured overnight, loaded with Thallos dye the following day. Test compounds or control compound (tert-butyl (3-((4-(benzyloxy)-2-methylphenyl)carbamoyl)-4-chlorophenyl)carbamate) or 0.3% DMSO (vehicle control) which were prepared on separate plates were added to the cell plates and incubated for 10 min, and then the cells were treated with thallium stimulus buffer to initiate thallium flux. To measure the efficacy and potency of test compounds, the change in fluorescence intensity (ΔRatio) and % inhibition were calculated using the following equations:
ΔRatio=(fluorescence intensity at 25 seconds after thallium addition)/(average of fluorescent intensity before thallium addition)

[1] = no *^12 (Method 2) mark on these rows
[2] = values without footnote *12 are Method 1

IC50 [1] [nM] | IC50 [2] [nM] | SMILES
430 |  | CC(=O)N1CC[C@@H](n2ncc(Cl)c2C(=O)Nc2ncc(C#Cc3ccccc3)cc2C)C[C@@H]1C (single isomer, unassigned) [Compound 261, 1-[(2S,4R)-1-acetyl-2-methylpiperidin-4-yl]-4-chloro-N-[3-methyl-5-(phenylethynyl)pyridin-2-yl]-1H-pyrazole-5-carboxamide or 1-[(2R,4S)-1-acetyl-2-methylpiperidin-4-yl]-4-chloro-N-[3-methyl-5-(phenylethynyl)pyridin-2-yl]-1H-pyrazole-5-carboxamide]
910 |  | Cc1cc(C#Cc2ccc(F)cc2)cnc1NC(=O)c1c(Cl)cnn1C1CC2(CCN(C(=O)C3CC3)C2)C1 (single isomer, unassigned) [Compound 363, 4-chloro-1-[(2s,4r)-6-(cyclopropanecarbonyl)-6-azaspiro[3.4]octan-2-yl]-N-{5-[(4-fluorophenyl)ethynyl]-3-methylpyridin-2-yl}-1H-pyrazole-5-carboxamide or 4-chloro-1-[(2r,4s)-6-(cyclopropanecarbonyl)-6-azaspiro[3.4]octan-2-yl]-N-{5-[(4-fluorophenyl)ethynyl]-3-methylpyridin-2-yl}-1H-pyrazole-5-carboxamide]
 | 250 | CC(=O)N1CCC(n2ncc(Cl)c2C(=O)Nc2ncc(C#Cc3ccccc3F)cc2C)C(F)C1 (stereo in doubt) [Compound 159, 1-((3R,4R)-1-acetyl-3-fluoropiperidin-4-yl)-4-chloro-N-(5-((2-fluorophenyl)ethynyl)-3-methylpyridin-2-yl)-1H-pyrazole-5-carboxamide]
330 |  | CC(=O)N1CCC(n2ncc(Cl)c2C(=O)Nc2ncc(C#Cc3ccc(F)cc3)cc2F)[C@H](F)C1 (stereo in doubt) [Compound 213, 1-((3R,4R)-1-acetyl-3-fluoropiperidin-4-yl)-4-chloro-N-(3-fluoro-5-((4-fluorophenyl)ethynyl)pyridin-2-yl)-1H-pyrazole-5-carboxamide]
710 |  | Cc1cc(C#Cc2ccccc2)cnc1NC(=O)c1c(Cl)cnn1C1CCN(C(=O)OC(C)(C)C)C[C@H]1F (stereo in doubt) [Compound 336, tert-butyl (3R,4R)-4-(4-chloro-5-((3-methyl-5-(phenylethynyl)pyridin-2-yl)carbamoyl)-1H-pyrazol-1-yl)-3-fluoropiperidine-1-carboxylate]
 | 40 | CC(=O)N1CCC(n2ncc(Br)c2C(=O)Nc2ncc(C#Cc3ccccc3)cc2C)CC1 [Compound 17, 1-(1-acetylpiperidin-4-yl)-4-bromo-N-(3-methyl-5-(phenylethynyl)pyridin-2-yl)-1H-pyrazole-5-carboxamide]
 | 60 | CC(=O)N1CCC(n2ncc(Cl)c2C(=O)Nc2ncc(C#Cc3cccs3)cc2F)CC1 [Compound 18, 1-(1-acetylpiperidin-4-yl)-4-chloro-N-(3-fluoro-5-(thiophen-2-ylethynyl)pyridin-2-yl)-1H-pyrazole-5-carboxamide]
 | 60 | CC(=O)N1CCC(n2ncc(Cl)c2C(=O)Nc2ncc(C#Cc3cccs3)cc2C)CC1 [Compound 19, 1-(1-acetylpiperidin-4-yl)-4-chloro-N-(3-methyl-5-(thiophen-2-ylethynyl)pyridin-2-yl)-1H-pyrazole-5-carboxamide]
 | 70 | CC(=O)N1CC[C@@H](n2ncc(Cl)c2C(=O)Nc2ncc(C#Cc3ccccc3)cc2F)[C@H](F)C1 [Compound 20, 1-((3R,4R)-1-acetyl-3-fluoropiperidin-4-yl)-4-chloro-N-(3-fluoro-5-(phenylethynyl)pyridin-2-yl)-1H-pyrazole-5-carboxamide]
 | 70 | Cc1cc(C#Cc2ccccc2)cnc1NC(=O)c1c(Cl)cnn1-c1ccc2c(c1)OCCO2 [Compound 21, 4-chloro-1-(2,3-dihydrobenzo[b][1,4]dioxin-6-yl)-N-(3-methyl-5-(phenylethynyl)pyridin-2-yl)-1H-pyrazole-5-carboxamide]
 | 80 | Cc1cc(C#Cc2ccccc2)cnc1NC(=O)c1c(Cl)cnn1-c1ccc2c(cnn2C)c1 [Compound 22, 4-chloro-1-(1-methyl-1H-indazol-5-yl)-N-(3-methyl-5-(phenylethynyl)pyridin-2-yl)-1H-pyrazole-5-carboxamide]
 | 80 | O=C(Nc1ncc(C#Cc2ccc(F)cc2)cc1F)c1c(Cl)cnn1[C@H]1CC[C@@H](NC(=O)C2COCCO2)CC1 (stereo partly drawn) [Compound 23, 1-(cis-4-(1,4-dioxane-2-carboxamido)cyclohexyl)-4-chloro-N-(3-fluoro-5-((4-fluorophenyl)ethynyl)pyridin-2-yl)-1H-pyrazole-5-carboxamide]
 | 90 | CC(=O)N1CCC(n2ncc(Cl)c2C(=O)Nc2ncc(C#Cc3cccc(F)c3)cc2F)CC1 [Compound 25, 1-(1-acetylpiperidin-4-yl)-4-chloro-N-(3-fluoro-5-((3-fluorophenyl)ethynyl)pyridin-2-yl)-1H-pyrazole-5-carboxamide]
 | 90 | CC(=O)N1CCCC(n2ncc(Cl)c2C(=O)Nc2ncc(C#Cc3ccccc3)cc2F)CC1 (centres unmarked) [Compound 26]
 | 90 | CC(=O)N1CCOC(Cn2ncc(Cl)c2C(=O)Nc2ncc(C#Cc3ccccc3)cc2F)C1 (centres unmarked) [Compound 27, 1-((4-acetylmorpholin-2-yl)methyl)-4-chloro-N-(3-fluoro-5-(phenylethynyl)pyridin-2-yl)-1H-pyrazole-5-carboxamide]
 | 90 | Cc1cc(C#Cc2ccccc2)cnc1NC(=O)c1c(Cl)cnn1C(C)C1CCN(C(=O)C(C)C)CC1 (centres unmarked) [Compound 28, 4-chloro-1-(1-(1-isobutyrylpiperidin-4-yl)ethyl)-N-(3-methyl-5-(phenylethynyl)pyridin-2-yl)-1H-pyrazole-5-carboxamide]
 | 100 | CC(=O)N1CCC(n2ncc(Cl)c2C(=O)Nc2ncc(C#Cc3ccccc3)cc2C)C(F)C1 (centres unmarked) [Compound 29, 1-(1-acetyl-3-fluoropiperidin-4-yl)-4-chloro-N-(3-methyl-5-(phenylethynyl)pyridin-2-yl)-1H-pyrazole-5-carboxamide]
 | 100 | CC(=O)N1CC[C@@H](n2ncc(Cl)c2C(=O)Nc2ncc(C#Cc3ccccc3)cc2C)[C@H](F)C1 [Compound 30, […]]
 | 100 | CC(=O)N1CCC(C(C)n2ncc(Cl)c2C(=O)Nc2ncc(C#Cc3ccccc3)cc2C)CC1 (centres unmarked) [Compound 32, 1-(1-(1-acetylpiperidin-4-yl)ethyl)-4-chloro-N-(3-methyl-5-(phenylethynyl)pyridin-2-yl)-1H-pyrazole-5-carboxamide]
 | 110 | CC(=O)N1CCC(n2ncc(Cl)c2C(=O)Nc2c(F)cc(C#Cc3ccccc3)cc2F)CC1 [Compound 33, 1-(1-acetylpiperidin-4-yl)-4-chloro-N-(2,6-difluoro-4-(phenylethynyl)phenyl)-1H-pyrazole-5-carboxamide]
 | 110 | CCC(=O)N1CCC(n2ncc(Cl)c2C(=O)Nc2ncc(C#Cc3ccccc3)cc2F)CC1 [Compound 34, 4-chloro-N-(3-fluoro-5-(phenylethynyl)pyridin-2-yl)-1-(1-propionylpiperidin-4-yl)-1H-pyrazole-5-carboxamide]
 | 110 | CC(=O)N1CCC(C(C)n2ncc(Cl)c2C(=O)Nc2ncc(C#Cc3ccccc3)cc2F)CC1 (centres unmarked) [Compound 35, 1-(1-(1-acetylpiperidin-4-yl)ethyl)-4-chloro-N-(3-fluoro-5-(phenylethynyl)pyridin-2-yl)-1H-pyrazole-5-carboxamide]
 | 110 | Cc1cc(C#Cc2cccs2)cnc1NC(=O)c1c(Cl)cnn1C1CC2(C1)CN(C(=O)C1CC1)C2 [Compound 36, 4-chloro-1-(2-(cyclopropanecarbonyl)-2-azaspiro[3.3]heptan-6-yl)-N-(3-methyl-5-(thiophen-2-ylethynyl)pyridin-2-yl)-1H-pyrazole 5-carboxamide]
 | 120 | CC(=O)N1CCC(n2ncc(Cl)c2C(=O)Nc2c(C)cc(C#Cc3ccccc3)cc2F)CC1 [Compound 37, 1-(1-acetylpiperidin-4-yl)-4-chloro-N-(2-fluoro-6-methyl-4-(phenylethynyl)phenyl)-1H-pyrazole-5-carboxamide]
 | 120 | Cc1cc(C#Cc2ccc(F)cc2)cnc1NC(=O)c1c(Cl)cnn1[C@H]1CC[C@@H](NC(=O)C2COCCO2)CC1 (stereo partly drawn) [Compound 38, 1-(cis-4-(1,4-dioxane-2-carboxamido)cyclohexyl)-4-chloro-N-(5-((4-fluorophenyl)ethynyl)-3-methylpyridin-2-yl)-1H-pyrazole-5-carboxamide]
 | 120 | CC(=O)N1CCC(C#N)(Cn2ncc(Cl)c2C(=O)Nc2ncc(C#Cc3ccccc3)cc2F)CC1 [Compound 39, 1-((1-acetyl-4-cyanopiperidin-4-yl)methyl)-4-chloro-N-(3-fluoro-5-(phenylethynyl)pyridin-2-yl)-1H-pyrazole-5-carboxamide]
